The results in this text go back to patent publication US20150250864A1, “ANTI-CANCER VACCINES” (Board of Regents, The University of Texas System, priority 2012, published 2015).

In assay [1] the test system is sera obtained from cancer patients. Put plainly: ELISA B cell epitope screening of 15-mer peptides with cancer patient sera. The assay is classed as binding, human. As to conditions: single 15-mer peptides of SP8 or SP9. From the text:
FIG. 7. Several novel epitopes were detected in BC patients by ELISA in SP8 and SP9, including 94, 108, 91, 88, 89, and 95 from pool 9.
B cell epitopes have been screened by ELISA or flow cytometry using 4D1, 4E6, 4E11, 6H5, 6E11, 5F11mAbs or G11D10 or P 1/P2e (single chain antibodies generated from 6H5 (FIGS. 5-6), or the sera obtained from cancer patients (FIGS. 7-8). Several anti-HERV-K monoclonal antibodies were able to recognize some of these peptides.
Background: In an ELISA, binding on a coated surface is turned into a signal by an enzyme label.

Assay [2] has as its system T cells from HLA A2+ normal donor. Put plainly: IFN-γ ELISPOT, T cells stimulated by 9-mer peptide pool-pulsed homologous B cells. The assay is classed as cell-based, human. To be noted: T cell stimulated 3 times with peptide pool #12 to 22. From the text: FIGS. 12A-B. Identification of HLA-A2 T-cell specific peptides using anti-human IFN-γ ELISPOT with T cells from one HLA A2^+ normal donor. (FIG. 12A) T cells, stimulated by peptide pool-pulsed homologous B cells three (3rd T cells) or four (4th T cells) times were reactive with two pools from a HERV-K HLA A2^+9-mer peptide library (pool #1-11 and pool #12-22). NP is no peptide control. (FIG. 12B) Photographs of actual plates for FIG. 12A.
FIGS. 13A-B. Identification of HLA-A2 T cell specific epitopes using anti-human IFN-γ ELISPOT. T cells obtained from PBMC stimulated by peptide pool-pulsed homologous B cells three (3rd T cells) or four (4th T cells) times, were reactive with individual peptides. (FIG. 13A) Image of ELISPOT. (FIG. 13B) The code of peptides evaluated in ELISPOT assays.
FIGS. 14A-C. Summary of number of ELISPOTs from each individual peptide. Numbers of spots detected (pool 1-11, pool 12-22, and pool 23-33) in ELISPOTS with a single peptide are shown. NP contains no peptide (as control). (FIG. 14A) Summary of number of ELISPOTs from each individual peptide including #1, #2, #3, #5, #6, #7, #8, and #9, and peptide pool #1 to #11. (FIG. 14B) Summary of number of ELISPOTs from each individual peptide including #12, #13, #14, #15, #17, #18, #19, #20, #22 and peptide pool #12 to #22. (FIG. 14C) Summary of number of ELISPOTs from each individual peptide including #23, #24, #25, #26, #27, #28, #30, #31, #32, #33, and peptide pool #23 to #33. 4th T cells indicated the T cells had been stimulated with peptide pool 4 times and 3rd T cells indicated the T cells had been stimulated with peptide pool 3 times.
The inventor used epitope mapping to identify responses to HERV-K peptides in breast cancer patients. They chemically synthesized a HERV-K env nine amino acid (9mer) peptide library (33 HLA A2 restricted peptides) and overlapping 15mer peptide library (144 peptides). Preliminary research has identified two pools from the HERV-K env 9mer peptide library that contain potential CD8+ epitopes, using interferon gamma (IFN-γ) enzyme-linked immunosorbent spot (ELISPOT) assay with T cells from one HLA A2^+ normal donor which was stimulated with the 9mer peptide pool-pulsed homologous dendritic cells (DCs).
HLA-2+ patients were identified by flow cytometry using anti-A2 antibody. Activated B cells were cultured from PBMCs stimulated with irradiated 3T3-CD40L-expressing fibroblasts. Normal donor CD8+ T-cell lines were obtained from PBMCs stimulated with autologous activated B cells pulsed with peptide pools (peptides are in 3 pools: #1-11, #12-22, and #23-33); the stimulation was repeated for 3-4 cycles. HERV-K specific T cells generated from normal donor lines were tested for peptide reactivity using IFN-γ ELISPOT assays (FIGS. 12A-B).

Entries after “also recorded” stand apart in the source; their conditions may differ.

As for LNRSKRFIFTLIAVI [15-mer 88], in assay [1], the “B epitope found by ELISA using patient sera” value (“B epitope found by ELISA” for short) is reported as “epitopes were found”.
As to KRFIFTLIAVIMGLI [15-mer 89], the “B epitope found by ELISA” value in assay [1] was “epitopes were found”.
Regarding LMSLEHRFQLQCDWN [15-mer 108], the “B epitope found by ELISA” value in assay [1] is “epitopes were found; also recorded: the only active epitope in each patient's serum”.
Still for that read-out and setting: the same measure for AAVAGVALHSSVQSV [15-mer 94]: “epitopes were found”; for AVIMGLIAVTATAAV [15-mer 91]: “epitopes were found”.
In the case of GVALHSSVQSVNFVN [15-mer 95], in assay [1], the “B epitope found by ELISA” value is recorded as “epitopes were found”.
As for TLIAVIMGL [HERVK-15], the “IFN-γ ELISPOT spots with individual peptide” value in assay [2] is reported as “numerous spots”.
